This is an account of results in patent publication US12344603B2 (Genentech, Inc., priority 2020, dated 2025).

For orientation: IC50 means the concentration needed to halve the response being measured. A higher IC50 goes with a need for much substance.

Counter-ions that a name gives are not always drawn.

Chain of IRE1α (O75460 547-977 D688N): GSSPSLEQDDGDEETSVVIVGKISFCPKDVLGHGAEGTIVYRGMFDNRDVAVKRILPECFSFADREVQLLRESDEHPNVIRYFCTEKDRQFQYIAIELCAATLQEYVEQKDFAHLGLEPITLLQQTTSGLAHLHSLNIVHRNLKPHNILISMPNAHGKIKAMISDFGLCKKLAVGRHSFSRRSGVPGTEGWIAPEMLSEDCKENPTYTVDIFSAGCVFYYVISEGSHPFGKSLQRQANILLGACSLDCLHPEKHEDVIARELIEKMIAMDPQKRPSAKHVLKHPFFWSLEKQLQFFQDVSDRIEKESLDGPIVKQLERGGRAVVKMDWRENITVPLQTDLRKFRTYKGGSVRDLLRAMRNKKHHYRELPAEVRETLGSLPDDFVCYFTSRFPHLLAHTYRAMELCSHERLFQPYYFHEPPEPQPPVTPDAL

This test concerns the target IRE1α (Homo sapiens (Human), UniProt O75460, D688N). Briefly: IRE1α TR-FRET competition binding assay (IRE1α HTRF). To be noted: TR-FRET competition binding to kinase domain of IRE1α. The method, boiled down:
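Kinase domain (0.25 nM) pre-bound to 2 nM Eu anti-His antibody for 1 h at 4° C in HEPES pH 7.5/MgCl2/Brij 35/DTT/gamma globulin buffer, then mixed with compounds and 2 nM Alexa 647 ATP-competitive probe. 1 h at room temperature; probe displacement read as TR-FRET (Ex 347 nm, Em 665/615 nm).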
For orientation: Time-resolved FRET reads energy transfer from a long-lived donor to a nearby acceptor.
Turning to `COc1nc(NS(=O)(=O)c2ccccc2Cl)ccc1-c1cc2cnc(N[C@H]3CC[C@H](N(C)C)CC3)nc2n(C(C)C)c1=O` [Compound 131, 2-Chloro-N-(5-(2-(((1r,4r)-4-(dimethylamino)cyclohexyl)amino)-8-isopropyl-7-oxo-7,8-dihydropyrido[2,3-d]pyrimidin-6-yl)-6-methoxypyridin-2-yl)benzenesulfonamide], the half-maximal inhibitory concentration (IC50) was determined as 0.21 nM.

In the case of `Cc1nc(NS(=O)(=O)c2ccc(F)cc2)ccc1-c1cc2cnc(N[C@H]3CC[C@H](N(C)C)CC3)nc2n(C(C)C)c1=O` [Compound 132, N-(5-(2-(((1r,4r)-4-(Dimethylamino)cyclohexyl)amino)-8-isopropyl-7-oxo-7,8-dihydropyrido[2,3-d]pyrimidin-6-yl)-6-methylpyridin-2-yl)-4-fluorobenzenesulfonamide], the IC50 was found to be 0.52 nM. The result for `Cc1nc(NS(=O)(=O)c2ccccc2Cl)ccc1-c1cc2cnc(N[C@@H]3CNC[C@@H](F)C3)nc2n(C(C)C)c1=O` [Compound 133, 2-Chloro-N-(5-(2-(((3S,5S)-5-fluoropiperidin-3-yl)amino)-8-isopropyl-7-oxo-7,8-dihydropyrido[2,3-d]pyrimidin-6-yl)-6-methylpyridin-2-yl)benzenesulfonamide] reads 0.62 nM. The result for `CC(C)n1c(=O)c(-c2ccc(NS(=O)(=O)C3CCCC3)c(F)c2)cc2cnc(N[C@H]3CC[C@H](N(C)C)CC3)nc21` [Compound 134, N-(4-(2-(((1r,4r)-4-(Dimethylamino)cyclohexyl)amino)-8-isopropyl-7-oxo-7,8-dihydropyrido[2,3-d]pyrimidin-6-yl)-2-fluorophenyl)cyclopentanesulfonamide hydrochloride] reads 0.19 nM; that for `Cc1nc(NS(=O)(=O)c2ccccc2Cl)ccc1-c1cc2cnc(N[C@H]3CC[C@H](N(C)C)CC3)nc2n(C(C)C)c1=O` [Compound 135, 2-Chloro-N-(5-(2-(((1r,4r)-4-(dimethylamino)cyclohexyl)amino)-8-isopropyl-7-oxo-7,8-dihydropyrido[2,3-d]pyrimidin-6-yl)-6-methylpyridin-2-yl)benzenesulfonamide], 0.43 nM.

With `Cc1nc(NS(=O)(=O)c2ccccc2C#N)ccc1-c1cc2cnc(N[C@H]3CC[C@H](N(C)C)CC3)nc2n(C(C)C)c1=O` [Compound 136, 2-Cyano-N-(5-(2-(((1r,4r)-4-(dimethylamino)cyclohexyl)amino)-8-isopropyl-7-oxo-7,8-dihydropyrido[2,3-d]pyrimidin-6-yl)-6-methylpyridin-2-yl)benzenesulfonamide], the half-inhibitory concentration (IC50) is 0.29 nM. Molecule `Cc1cccc(S(=O)(=O)Nc2ccc(-c3cc4cnc(N[C@H]5CC[C@H](N(C)C)CC5)nc4n(C(C)C)c3=O)c(C)n2)c1F` [Compound 137, N-(5-(2-(((1r,4r)-4-(Dimethylamino)cyclohexyl)amino)-8-isopropyl-7-oxo-7,8-dihydropyrido[2,3-d]pyrimidin-6-yl)-6-methylpyridin-2-yl)-2-fluoro-3-methylbenzenesulfonamide] gave an IC50 of 0.48 nM. `COCCN(C)[C@H]1CC[C@H](Nc2ncc3cc(-c4ccc(NS(=O)(=O)CCC(F)(F)F)c(F)c4)c(=O)n(C(C)C)c3n2)CC1` [Compound 138, 3,3,3-Trifluoro-N-(2-fluoro-4-(8-isopropyl-2-(((1r,4r)-4-((2-methoxyethyl)(methyl)amino)cyclohexyl)amino)-7-oxo-7,8-dihydropyrido[2,3-d]pyrimidin-6-yl)phenyl)propane-1-sulfonamide]: the concentration for half-maximal inhibition (IC50) was 0.19 nM.

Molecule `CC(C)n1c(=O)c(-c2cc(F)c(NS(=O)(=O)Cc3cccnc3C(F)(F)F)c(F)c2F)cc2cnc(N[C@@H]3CNC[C@@H](F)C3)nc21` [Compound 139, N-(2,3,6-Trifluoro-4-(2-(((3S,5S)-5-fluoropiperidin-3-yl)amino)-8-isopropyl-7-oxo-7,8-dihydropyrido[2,3-d]pyrimidin-6-yl)phenyl)-1-(2-(trifluoromethyl)pyridin-3-yl)methanesulfonamide] showed a half-inhibitory concentration (IC50) of 0.27 nM. The result for `Cc1nc(NS(=O)(=O)c2ccccc2F)ccc1-c1cc2cnc(N[C@H]3CC[C@H](N(C)C)CC3)nc2n(C(C)C)c1=O` [Compound 140, N-(5-(2-(((1r,4r)-4-(Dimethylamino)cyclohexyl)amino)-8-isopropyl-7-oxo-7,8-dihydropyrido[2,3-d]pyrimidin-6-yl)-6-methylpyridin-2-yl)-2-fluorobenzenesulfonamide] reads 0.3 nM; that for `CC(C)n1c(=O)c(-c2cc(F)c(NS(=O)(=O)Cc3ccc(F)cc3)c(F)c2F)cc2cnc(N[C@H]3CC[C@H](N(C)CCF)CC3)nc21` [Compound 141, 1-(4-Fluorophenyl)-N-(2,3,6-trifluoro-4-(2-(((1r,4r)-4-((2-fluoroethyl)(methyl)amino)cyclohexyl)amino)-8-isopropyl-7-oxo-7,8-dihydropyrido[2,3-d]pyrimidin-6-yl)phenyl)methanesulfonamide], 0.18 nM.

On to `Cc1nc(NS(=O)(=O)c2cccc(C#N)c2)ccc1-c1cc2cnc(N[C@H]3CC[C@H](N(C)C)CC3)nc2n(C(C)C)c1=O` [Compound 142, 3-Cyano-N-(5-(2-(((1r,4r)-4-(dimethylamino)cyclohexyl)amino)-8-isopropyl-7-oxo-7,8-dihydropyrido[2,3-d]pyrimidin-6-yl)-6-methylpyridin-2-yl)benzenesulfonamide], for which the concentration for half-maximal inhibition (IC50) came to 0.69 nM.

In turn, `CC(C)n1c(=O)c(-c2ccc(NS(=O)(=O)CCC(F)(F)F)nc2)cc2cnc(N[C@H]3CC[C@H](N(C)CCF)CC3)nc21` [Compound 143, 3,3,3-Trifluoro-N-(5-(2-(((1r,4r)-4-((2-fluoroethyl)(methyl)amino)cyclohexyl)amino)-8-isopropyl-7-oxo-7,8-dihydropyrido[2,3-d]pyrimidin-6-yl)pyridin-2-yl)propane-1-sulfonamide] displayed an IC50 of 0.3 nM.

`CC(C)n1c(=O)c(-c2ccc(NS(=O)(=O)c3ccccc3)nc2)cc2cnc(N[C@H]3CC[C@H](N(C)CCF)CC3)nc21` [Compound 144, N-(5-(2-(((1r,4r)-4-((2-Fluoroethyl)(methyl)amino)cyclohexyl)amino)-8-isopropyl-7-oxo-7,8-dihydropyrido[2,3-d]pyrimidin-6-yl)pyridin-2-yl)benzenesulfonamide]: the 50% inhibitory concentration (IC50) was 0.18 nM.

With `Cc1nc(NS(=O)(=O)c2ccccc2Cl)ccc1-c1cc2cnc(N[C@H]3CC[C@H](N(C)CCF)CC3)nc2n(C(C)C)c1=O` [Compound 145, 2-Chloro-N-(5-(2-(((1r,4r)-4-((2-fluoroethyl)(methyl)amino)cyclohexyl)amino)-8-isopropyl-7-oxo-7,8-dihydropyrido[2,3-d]pyrimidin-6-yl)-6-methylpyridin-2-yl)benzenesulfonamide], the IC50 amounted to 0.27 nM. The result for `CC(C)n1c(=O)c(-c2ccc(NS(=O)(=O)c3ccccc3Cl)nc2)cc2cnc(N[C@H]3CC[C@H](N(C)CCF)CC3)nc21` [Compound 146, 2-Chloro-N-(5-(2-(((1r,4r)-4-((2-fluoroethyl)(methyl)amino)cyclohexyl)amino)-8-isopropyl-7-oxo-7,8-dihydropyrido[2,3-d]pyrimidin-6-yl)pyridin-2-yl)benzenesulfonamide hydrochloride] reads 0.16 nM.
